From the NIST ThermoML archive (doi:10.1021/je700260f)
Several values for one entry are separate records, joined by “and”; a condition that tells them apart may be missing. Equal entries are not always repeated. ± gives the expanded uncertainty stated by the source.

Settings: 283.15 K, Liquid, Vibrating tube method

FC(C(F)(F)F)C(F)(F)F [1,1,1,2,3,3,3-heptafluoropropane]
Settings	mass density
30560 kPa	1568.3 ± 1.8 kg/m3
30595 kPa	1568.5 ± 1.8 kg/m3
30635 kPa	1568.6 ± 1.8 kg/m3
30666 kPa	1568.6 ± 1.8 kg/m3
30696 kPa	1568.7 ± 1.8 kg/m3
30743 kPa	1568.9 ± 1.8 kg/m3
30783 kPa	1569 ± 1.8 kg/m3
30830 kPa	1569.1 ± 1.8 kg/m3
30861 kPa	1569.2 ± 1.8 kg/m3
30897 kPa	1569.2 ± 1.8 kg/m3
30937 kPa	1569.4 ± 1.8 kg/m3
30968 kPa	1569.5 ± 1.8 kg/m3
30999 kPa	1569.5 ± 1.8 kg/m3
31030 kPa	1569.6 ± 1.8 kg/m3
31065 kPa	1569.7 ± 1.8 kg/m3
31105 kPa	1569.9 ± 1.8 kg/m3
31140 kPa	1569.9 ± 1.8 kg/m3
31187 kPa	1570 ± 1.8 kg/m3
31230 kPa	1570.2 ± 1.8 kg/m3
31267 kPa	1570.2 ± 1.8 kg/m3
31308 kPa	1570.4 ± 1.8 kg/m3
31350 kPa	1570.6 ± 1.8 kg/m3
31392 kPa	1570.6 ± 1.8 kg/m3
31429 kPa	1570.7 ± 1.8 kg/m3
31511 kPa	1570.9 ± 1.8 kg/m3
31547 kPa	1571.1 ± 1.8 kg/m3
31588 kPa	1571.2 ± 1.8 kg/m3
31620 kPa	1571.3 ± 1.8 kg/m3
31657 kPa	1571.3 ± 1.8 kg/m3
31697 kPa	1571.5 ± 1.8 kg/m3
31750 kPa	1571.7 ± 1.8 kg/m3
31782 kPa	1571.7 ± 1.8 kg/m3
31819 kPa	1571.7 ± 1.8 kg/m3
31855 kPa	1571.9 ± 1.8 kg/m3
31897 kPa	1572 ± 1.8 kg/m3
32027 kPa	1572.4 ± 1.8 kg/m3
32095 kPa	1572.5 ± 1.8 kg/m3
32132 kPa	1572.7 ± 1.8 kg/m3
32164 kPa	1572.9 ± 1.8 kg/m3
32391 kPa	1573.4 ± 1.8 kg/m3
32884 kPa	1574.5 ± 1.8 kg/m3
32921 kPa	1574.8 ± 1.8 kg/m3
32959 kPa	1574.9 ± 1.8 kg/m3
33280 kPa	1575.7 ± 1.8 kg/m3
33348 kPa	1575.9 ± 1.8 kg/m3
33384 kPa	1576 ± 1.8 kg/m3
33426 kPa	1576 ± 1.8 kg/m3
33457 kPa	1576.2 ± 1.8 kg/m3
33499 kPa	1576.3 ± 1.8 kg/m3
33535 kPa	1576.4 ± 1.8 kg/m3
33572 kPa	1576.5 ± 1.8 kg/m3
33609 kPa	1576.6 ± 1.8 kg/m3
33661 kPa	1576.7 ± 1.8 kg/m3
33688 kPa	1576.8 ± 1.8 kg/m3
33731 kPa	1576.9 ± 1.8 kg/m3
33762 kPa	1576.9 ± 1.8 kg/m3
33793 kPa	1577.1 ± 1.8 kg/m3
33830 kPa	1577.3 ± 1.8 kg/m3
33873 kPa	1577.3 ± 1.8 kg/m3
33910 kPa	1577.4 ± 1.8 kg/m3
33948 kPa	1577.5 ± 1.8 kg/m3
33984 kPa	1577.6 ± 1.8 kg/m3
34026 kPa	1577.7 ± 1.8 kg/m3
34068 kPa	1577.8 ± 1.8 kg/m3
34110 kPa	1577.9 ± 1.8 kg/m3
34148 kPa	1577.9 ± 1.8 kg/m3
34186 kPa	1578.2 ± 1.8 kg/m3
34224 kPa	1578.1 ± 1.8 kg/m3
34267 kPa	1578.2 ± 1.8 kg/m3
34310 kPa	1578.5 ± 1.8 kg/m3
34350 kPa	1578.6 ± 1.8 kg/m3
34387 kPa	1578.6 ± 1.8 kg/m3
34414 kPa	1578.7 ± 1.8 kg/m3
34442 kPa	1578.8 ± 1.8 kg/m3
34456 kPa	1578.8 ± 1.8 kg/m3
34470 kPa	1578.8 ± 1.8 kg/m3
34478 kPa	1578.9 ± 1.8 kg/m3
34486 kPa	1578.9 ± 1.8 kg/m3
34492 kPa	1579.1 ± 1.8 kg/m3
34498 kPa	1579 ± 1.8 kg/m3
34504 kPa	1578.9 ± 1.8 kg/m3
34505 kPa	1578.9 ± 1.8 kg/m3
34506 kPa	1579 ± 1.8 kg/m3
34508 kPa	1579 ± 1.8 kg/m3
34509 kPa	1579 ± 1.8 kg/m3
34511 kPa	1579 ± 1.8 kg/m3 and 1579.2 ± 1.8 kg/m3
34512 kPa	1579 ± 1.8 kg/m3 and 1579.1 ± 1.8 kg/m3
34513 kPa	1579.1 ± 1.8 kg/m3
34514 kPa	1579.2 ± 1.8 kg/m3
34515 kPa	1579 ± 1.8 kg/m3 and 1578.9 ± 1.8 kg/m3
34516 kPa	1579.1 ± 1.8 kg/m3
34517 kPa	1579 ± 1.8 kg/m3
34518 kPa	1579 ± 1.8 kg/m3
34519 kPa	1578.9 ± 1.8 kg/m3 and 1579 ± 1.8 kg/m3 and 1579.1 ± 1.8 kg/m3
34520 kPa	1578.9 ± 1.8 kg/m3 and 1579.1 ± 1.8 kg/m3
34521 kPa	1579 ± 1.8 kg/m3 and 1578.9 ± 1.8 kg/m3
34522 kPa	1579 ± 1.8 kg/m3
34523 kPa	1579.1 ± 1.8 kg/m3 and 1579 ± 1.8 kg/m3
34524 kPa	1579.1 ± 1.8 kg/m3 and 1579 ± 1.8 kg/m3
34525 kPa	1579 ± 1.8 kg/m3 and 1578.9 ± 1.8 kg/m3
34526 kPa	1579.1 ± 1.8 kg/m3
34527 kPa	1579 ± 1.8 kg/m3
34528 kPa	1579.1 ± 1.8 kg/m3
